# Assays:
# [1] = Pharmacokinetic study of single oral administration in healthy volunteers; format: in vivo, human
# Experimental: Evaluation of pharmacokinetics: according to the results of phase I clinical tolerance trial and the pre-designed therapeutic dose of phase II clinical trial, a high dose of 11. 25 mg/kg BW (body weight) can be tolerated by all volunteers in tolerance test, three different dose groups had been set as follows: low dose group, moderate dose group and high dose group were 3, 6 and 12 mg/kg BW, respectively. Three-way crossover Latin square design was used. All subjects were randomly divided into 3 test groups, and the tested drug at different doses was administrated to the subjects when performing each test. Thus, after 3 tests, each subject had been administrated with the testing drug at high, moderate and low dose by following the Latin square design procedure. The interval between two tests was 2 weeks.
# (§1) After a single oral administration of the tested drug, 6 ml anticoagulant heparin venous blood samples were collected at 0th (immediately before administration), 15th minute, 30th minute, 45th minute, 60th minute, 1.5th hour, 2nd hour, 3rd hour, 4th hour, 6th hour, 8th hour, 12th hour, 16th hour and 24th hour respectively to determine the concentration of S-zopiclone. By HPLC, the plasma drug concentration of each subject had been determined at different time-points to give a concentration-time curve. The main pharmacokinetic parameters of the subjects had been calculated, including AUC, Cmax, Tmax, AUC0˜α, AUC0-t and t1/2, etc.
# (§2) The crystalline form of S-zopiclone was prepared into coated tablets (3 mg S-zopiclone/tablet) in accordance with Example 1 and Example 9, single orally administrated.
# (§3) Pharmacokinetic indices: the plasma drug concentration had been determined immediately before administration and at different time-points after administration of the drug to give a concentration-time curve. The main pharmacokinetic parameters had been calculated, including Cmax, Tmax, AUC0˜α, AUC0-t and t1/2, etc.
# (§4) Pharmacokinetic: 3P97 statistical analysis software had been applied to calculate the main pharmacokinetic parameters.
# [2] = tested on: Male Long-Evans rats; test: Test of spontaneous activity; format: in vivo, rat; details: 10 mg/Kg body weight
# Experimental: (§5) Male Long-Evans rats (weighing 250˜275 g) were adopted, divided into 3 groups, and fed in a 12-hour light-dark cycle. After one week of feeding, the experiment was carried out.
# Horizontal activity of rats had been observed under an open circumstance to measure a total spontaneous activity. Respectively, all animals were placed into 8 black light-proof rooms, and their spontaneous activities were monitored by an infrared sensor mounted on the wall at equal intervals to record once every 10 minutes for 120 minutes.
# The crystalline form of S-zopiclone was administrated to the animals at a dose of 10 mg/Kg body weight. 30˜60 minutes after administration, the inhibitory effect on the locomotor ability reached a peak, and disappeared after 2 hours.
# [3] = Accelerated stability test; details: 40±2° C., RH 75±5%
# Experimental: The crystalline form of S-zopiclone was packaged in packages simulated the commercial ones, and placed in a thermostat container (temperature: 40±2° C., RH:75±5%) for 6 months. The specimens were sampled on the 1st, 2nd, 3rd and 6th month respectively to measure their stability in accordance with the key stability-relevant items.
# [4] = tested on: Male Long-Evans rats; test: Maze test; format: in vivo, rat
# Experimental: as §5
# [5] = High humidity (25° C., RH 92.5%) stability test; format: physicochemical; details: for Content (%) / Related substances (%) Levozopiclone / Related substances (%) Other impurities: High humidity (92.5%), 25° C.; for Weight gain: high humidity 25° C., RH 92.5%
# Experimental: The crystalline form of S-zopiclone of the present invention was introduced into an open and colorless transparent weighing-bottle batch by batch, and placed in a closed vessel (KNO3 saturated solution, RH: 92.5%) for 10 days. The specimens were sampled on the 5th and 10th day respectively to measure their stability in accordance with the key stability-relevant items. Meanwhile, the weight of the tested drug pre-and post test was measured accurately.
# [6] = Long-term reserved-sample stability test; format: physicochemical; details: room temperature
# Description: The crystalline form of S-zopiclone was packaged in packages simulated the commercial ones, and placed at room temperature. The specimens were sampled on the 3rd, 6th, 9th, 12th, 18th, 24th, and 36th month respectively to measure their stability in accordance with the key stability-relevant items.
# [7] = Pharmacokinetic study pre and post eating in healthy volunteers; format: in vivo, human; details: single oral
# Experimental: In addition, the effect of eating food on in vivo metabolism of the drug had been evaluated. 8 subjects were randomly divided into 2 groups. In 2 tests, the subjects of each group received the drug at the same dose (6 mg) in the cases of fasting and 5 minutes after taking standard diet. The interval between two tests was 2 weeks.
# as §1, §2, §3, §4
# [8] = 3 mg single oral administration
# [9] = 6 mg single oral administration
# [10] = 12 mg single oral administration
# [11] = 6 mg (eating), 5 minutes after standard diet
compound,measurement,setting,value
"CN1CCN(C(=O)O[C@H]2c3nccnc3C(=O)N2c2ccc(Cl)cn2)CC1 [crystalline form of S-zopiclone, (+)-(S)-(4-methylpiperazine-1-carboxylate)(6-(5-chloropyridinyl-2-yl)-7-carbonyl-6,7-dihydro-5-H-pyrrolo[3,4-b]pyrazin-5-yl ester)]",AUC0-∞,[1]; [8],259.66 ± 92.58 µg/h/L
same,Cmax,[1]; [8],33.96 ± 8.63 ng/mL
same,Tmax,[1]; [8],1.50 ± 0.66 h
same,plasma clearance,[1]; [8],14.10 ± 4.5 L/h
same,t1/2,[1]; [8],6.98 ± 0.99 h
same,AUC0-∞,[1]; [9],404.21 ± 73.32 µg/h/L
same,Cmax,[1]; [9],60.94 ± 11.44 ng/mL
same,Tmax,[1]; [9],1.28 ± 0.43 h
same,plasma clearance,[1]; [9],15.80 ± 3.0 L/h
same,t1/2,[1]; [9],8.20 ± 6.14 h
same,AUC0-∞,[1]; [10],1291.26 ± 426.68 µg/h/L
same,Cmax,[1]; [10],182.72 ± 67.44 ng/mL
same,Tmax,[1]; [10],1.58 ± 0.40 h
same,plasma clearance,[1]; [10],10.90 ± 5.00 L/h
same,t1/2,[1]; [10],8.06 ± 2.82 h
same,time after which inhibitory effect on the locomotor ability disappeared,[2],2 h
same,"stability (character, melting point, related substances versus 0th day)",[3]; 6 months of accelerated test,remained stable
same,Content (%),[3]; month 0,100.06%
same,Related substances (%) Levozopiclone,[3]; month 0,0.06%
same,Related substances (%) Other impurities,[3]; month 0,0.09%
same,Content (%),[3]; month 1,100.13%
same,Related substances (%) Levozopiclone,[3]; month 1,0.07%
same,Related substances (%) Other impurities,[3]; month 1,0.10%
same,Content (%),[3]; month 2,100.02%
same,Related substances (%) Levozopiclone,[3]; month 2,0.07%
same,Related substances (%) Other impurities,[3]; month 2,0.12%
same,Content (%),[3]; month 3,99.91%
same,Related substances (%) Levozopiclone,[3]; month 3,0.05%
same,Related substances (%) Other impurities,[3]; month 3,0.12%
same,Content (%),[3]; month 6,99.73%
same,Related substances (%) Levozopiclone,[3]; month 6,0.06%
same,Related substances (%) Other impurities,[3]; month 6,0.09%
same,residence time in the open arm,[4]; 5 mg/Kg body weight,significantly increase
same,"effect on total entries, open arm entries and close arm entries",[4]; 10 mg/Kg body weight,significant effect
same,residence time in the open arm,[4]; 10 mg/Kg body weight,significantly increase
same,Content (%),[5]; day 0,100.06%
same,Related substances (%) Levozopiclone,[5]; day 0,0.06%
same,Related substances (%) Other impurities,[5]; day 0,0.09%
same,Content (%),[5]; day 5,99.86%
same,Related substances (%) Levozopiclone,[5]; day 5,0.08%
same,Related substances (%) Other impurities,[5]; day 5,0.11%
same,Content (%),[5]; day 10,99.91%
same,Related substances (%) Levozopiclone,[5]; day 10,0.07%
same,Related substances (%) Other impurities,[5]; day 10,0.11%
same,Weight gain,[5]; 5th day,0.07%
same,Weight gain,[5]; 10th day,0.08%
same,"stability (character, melting point, related substances versus 0th day)","[6]; long-term reserved-sample test, up to 36 months",remained stable
same,Content (%),[6]; month 0,100.06%
same,Related substances (%) Levozopiclone,[6]; month 0,0.06%
same,Related substances (%) Other impurities,[6]; month 0,0.09%
same,Content (%),[6]; month 3,100.3%
same,Related substances (%) Levozopiclone,[6]; month 3,0.06%
same,Related substances (%) Other impurities,[6]; month 3,0.11%
same,Content (%),[6]; month 6,100.21%
same,Related substances (%) Levozopiclone,[6]; month 6,0.06%
same,Related substances (%) Other impurities,[6]; month 6,0.14%
same,Content (%),[6]; month 9,100.16%
same,Related substances (%) Levozopiclone,[6]; month 9,0.04%
same,Related substances (%) Other impurities,[6]; month 9,0.14%
same,Content (%),[6]; month 12,100.08%
same,Related substances (%) Levozopiclone,[6]; month 12,0.06%
same,Related substances (%) Other impurities,[6]; month 12,0.14%
same,Content (%),[6]; month 18,100.12%
same,Related substances (%) Levozopiclone,[6]; month 18,0.07%
same,Related substances (%) Other impurities,[6]; month 18,0.17%
same,Content (%),[6]; month 24,99.80%
same,Related substances (%) Levozopiclone,[6]; month 24,0.07%
same,Related substances (%) Other impurities,[6]; month 24,0.18%
same,Content (%),[6]; month 36,100.06%
same,Related substances (%) Levozopiclone,[6]; month 36,0.07%
same,Related substances (%) Other impurities,[6]; month 36,0.20%
same,AUC0-∞,[7]; [11],284.00 ± 88.36 µg/h/L
same,Cmax,[7]; [11],62.60 ± 18.95 ng/mL
same,Tmax,[7]; [11],1.75 ± 0.89 h
same,plasma clearance,[7]; [11],21.4 ± 7.4 L/h
same,t1/2,[7]; [11],6.75 ± 1.49 h
same,AUC0-∞,[7]; 6 mg (fasting),335.73 ± 145.57 µg/h/L
same,Cmax,[7]; 6 mg (fasting),60.69 ± 11.43 ng/mL
same,Tmax,[7]; 6 mg (fasting),1.31 ± 0.44 h
same,plasma clearance,[7]; 6 mg (fasting),16.00 ± 3.3 L/h
same,t1/2,[7]; 6 mg (fasting),7.17 ± 2.69 h
